Entries after “also recorded” stand apart in the source; their conditions may differ. Where two headings read alike, the source gives them in different places.
System: HUVECs
Assay: Inhibition experiments: signalling inhibitors on LL-37/hCAP-18-induced endothelial proliferation
Type: cell-based, human
Experimental: Stimulation of angiogenesis by LL-37/hCAP-18 in vitro. a, In vitro proliferation assays. HUVECs were seeded on six well plastic dishes and cultivated in serum free medium. Different concentrations of LL-37/hCAP-18 and control peptides were added to the culture medium. Figures on the left hand side indicate the numbers of cells per µl of volume after 72 h. VEGF was used as positive control. […] A significance level of P < 0.05 is labeled with **.b. […] HUVECs were seeded on Matrigel support and cultivated in serum free medium in the absence (c) or presence (d) of 0.5 µg/ml LL-37/hCAP-18. After 18 h, the cultures were inspected for the formation of rings and cords. Representative figures are shown.
Endothelial cells from human umbilical veins (HUVEC) were isolated as described before ^8. 10^4 cells were seeded on six well plastic dishes in serum free medium. Different concentrations of LL-37 were added to the culture medium. VEGF (5 ng / ml, 165 amino acid variant, Sigma Chemicals, Munich, Germany) was used as positive control. After 72 h the cells were detached from the support and counted. Experiments were repeated ten times using synthetic LL-37/hCAP-18 (37 C-terminal amino acids) and the hexapeptide WKYMVm, wherein "m" denotes the D-form of the amino acid methionine, from two different sources (IPF Pharmaceuticals, Hannover, Germany and Institute for Biochemistry, Humboldt-University of Berlin, Germany). As control peptide we used the peptide L-14 […] to have any interactions with FPRL1 from the same source (Humboldt-University). Human serum (10 %, donor with ABO blood group O) was applied under the same conditions to analyze any impact on induction of proliferation by LL-37. For inhibition experiments we applied inhibitors of G-protein coupled receptors (pertussis toxin, 10 ng/ml), PI-3K (wortmannin), and PKC (GF 109203X). For Matrigel assays HUVECs were seeded on Matrigel support (Beckton Dickinson, Franklin Lakes, NJ) and cultivated in serum free medium in the absence or presence of 0.5 µg/ml LL-37. After 18 h, the cultures were inspected for the formation of rings and cords. Experiments were repeated three times. We measured the ability of LL-37/hCAP-18 to accelerate proliferation of HUVECs in a proliferation assay. […] WKYMVm is a specific agonist for FPRL1 ^10.
As a next step we analyzed which mechanisms might be involved in the angiogenic activity of LL-37/hCAP-18. We applied inhibitors of G-protein coupled receptors (pertussis toxin), PI-3K (wortmannin), and PKC (GF 109203X) and monitored cell proliferation as outcome parameter.

Row | Compound | effect of inhibitor on proliferative response induced by LL-37/hCAP-18 (preincubation of endothelial cells with inhibitor (pertussis toxin 10 ng/ml)) | effect of inhibitor on baseline cell proliferation (without LL-37/hCAP-18) | effect of inhibitor on baseline cell proliferation | effect of inhibitor on proliferative response induced by LL-37/hCAP-18
1 | CN(C)CCCn1cc(C2=C(c3c[nH]c4ccccc34)C(=O)NC2=O)c2ccccc21 [GF 109203X] | inhibition of the proliferative response; also recorded: inhibited activities of LL-37/hCAP-18 on endothelial proliferation | no effect on the baseline measurements | – | –
2 | COC[C@H]1OC(=O)c2coc3c2[C@@]1(C)C1=C(C3=O)[C@@H]2CCC(=O)[C@@]2(C)C[C@H]1OC(C)=O [wortmannin] | – | – | no effect on the baseline measurements | inhibition of the proliferative response; also recorded: inhibited activities of LL-37/hCAP-18 on endothelial proliferation

Source: patent EP1358888A1, “The human peptide antibiotic LL-37/hCAP-18 is an inducer of angiogenesis” (priority 2002, dated 2003)
